Legend:
Assay type in all cases: cell-based
786-O = assay: Cell proliferation assay (ATPlite), drug with vs without cobicistat; settings: 786-O cell line; 120 hours incubation
Summary of the method: (§1)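 Cells seeded at 200-3200/well in ATCC-recommended medium, grown 24 h, then exposed to 9-point 3.16-fold dilutions (3.16×10^−5 to 3.16×10^−9 M, duplicate, 0.4% DMSO final) for 120 h at 37 °C, 5% CO2. ATPlite luminescence gave %-growth versus untreated; IC50 from 4-parameter logistic fit.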

cell lines tested = assay: Cell proliferation assay, summary across all cell lines and drugs; settings: comparison among the six primary drugs
Description: All cell lines were obtained from the American Type Culture Collection (ATCC) Manassas, Va. (US). Master and working cell banks (MCB and WCB) were prepared by subculturing in ATCC-recommended media and freezing protocols (www.atcc.org). Cell line stocks for the assays were prepared from the WCB. The MCB, WCBs and assay stocks were prepared within respectively 3, 6 and 9 passages of the ATCC vial.
Solid powders of reference compounds were weighed on a calibrated balance and dissolved in 100% DMSO. DMSO samples were stored at room temperature. At the day of the experiment, the compound stock was diluted in 3.16 fold steps in 100% DMSO to obtain a 9-point dilution series. This was further diluted 31.6 times in 20 mM sterile Hepes buffer pH 7.4. A volume of 5 μl was transferred to the cells to generate a test concentration range from 3.16×10^−5M to 3.16×10^−9 M in duplicate. The final DMSO concentration during incubation was […] in all wells.
An assay stock was thawed and diluted in its ATCC recommended medium and dispensed in a 384-well plate, depending on the cell line used, at a concentration of 200-3200 cells per well in 45 μl medium. For each used cell line the optimal cell density is used. The margins of the plate were filled with phosphate-buffered saline. Plated cells were incubated in a humidified atmosphere of 5% CO2 at 37° C. After 24 hours, 5 μl of compound dilution was added and plates were further incubated for another 120 hours. After 120 hours, 25 μl of ATPlite 1Step™ (PerkinElmer) solution was added to each well, and subsequently shaken for 2 minutes. After 10 minutes of incubation in the dark, the luminescence was recorded on an Envision multimode reader (PerkinElmer).
IC50s were calculated by non-linear regression using IDBS XLfit 5. The percentage growth after 120 h (%-growth) was calculated as follows: 100%×(luminescencet=120h/luminescenceuntreated,t=120h). This was fitted to the ^10log compound concentration (conc) by a 4-parameter logistics curve: %−growth=bottom+(top−bottom)/(1+10^(log IC50-conc)*hill)), where hill is the Hill-coefficient, and bottom and top the asymptotic minimum and maximum cell growth that the compound allows in that assay.

COLO 829 = assay: Cell proliferation assay (ATPlite), drug with vs without cobicistat; settings: COLO 829 cell line; 120 hours incubation
Summary of the method: as §1

NCI-H460 = assay: as above; settings: NCI-H460 cell line; 120 hours incubation
Summary of the method: as §1

Jurkat E6.1 = assay: as above; settings: Jurkat E6.1 cell line; 120 hours incubation
Summary of the method: as §1

LS 174T = assay: as above; settings: LS 174T cell line; 120 hours incubation
Summary of the method: as §1

RKO = assay: as above; settings: RKO cell line; 120 hours incubation
Summary of the method: as §1

SMILES	Fold change in IC50 (IC50 [Drug + Cobicistat]/IC50 [Drug]) (786-O)	extent of boosting by cobicistat (cell lines tested)	Fold change in IC50 (IC50 [Drug + Cobicistat]/IC50 [Drug]) (COLO 829)	Fold change in IC50 (IC50 [Drug + Cobicistat]/IC50 [Drug]) (NCI-H460)	Fold change in IC50 (IC50 [Drug + Cobicistat]/IC50 [Drug]) (Jurkat E6.1)	Fold change in IC50 (IC50 [Drug + Cobicistat]/IC50 [Drug]) (LS 174T)	Fold change in IC50 (IC50 [Drug + Cobicistat]/IC50 [Drug]) (RKO)
Cc1nc(Nc2ncc(C(=O)Nc3c(C)cccc3Cl)s2)cc(N2CCN(CCO)CC2)n1 [dasatinib]	1.6 fold	–	–	–	–	–	–
CC(=O)O[C@@]12CO[C@@H]1C[C@H](O)[C@@]1(C)C(=O)[C@H](O)C3=C(C)[C@@H](OC(=O)[C@H](O)[C@@H](NC(=O)OC(C)(C)C)c4ccccc4)C[C@@](O)([C@@H](OC(=O)c4ccccc4)[C@H]21)C3(C)C [docetaxel]	4.2 fold	boosted to the greatest extent	3.7 fold	2.1 fold	2.2 fold	2.8 fold	3.8 fold
COc1cccc2c1C(=O)c1c(O)c3c(c(O)c1C2=O)C[C@@](O)(C(=O)CO)C[C@@H]3O[C@H]1C[C@H](N)[C@H](O)[C@H](C)O1 [doxorubicin]	2.3 fold	–	3.8 fold	2.0 fold	2.5 fold	3.6 fold	2.9 fold
CC(=O)O[C@H]1C(=O)[C@@]2(C)[C@H]([C@H](OC(=O)c3ccccc3)[C@]3(O)C[C@H](OC(=O)[C@H](O)[C@@H](NC(=O)c4ccccc4)c4ccccc4)C(C)=C1C3(C)C)[C@]1(OC(C)=O)CO[C@@H]1C[C@@H]2O [paclitaxel]	3.0 fold	–	4.1 fold	2.0 fold	2.5 fold	1.8 fold	3.3 fold
CC[C@]1(O)C[C@@H]2CN(CCc3c([nH]c4ccccc34)[C@@](C(=O)OC)(c3cc4c(cc3OC)N(C)[C@H]3[C@@](O)(C(=O)OC)[C@H](OC(C)=O)[C@]5(CC)C=CCN6CC[C@]43[C@@H]65)C2)C1 [vinblastine]	2.5 fold	boosted to the greatest extent	6.3 fold	3.4 fold	2.5 fold	3.4 fold	3.6 fold
CC[C@]1(O)C[C@H]2CN(CCc3c([nH]c4ccccc34)[C@@](C(=O)OC)(c3cc4c(cc3OC)N(C=O)[C@H]3[C@@](O)(C(=O)OC)[C@H](OC(C)=O)[C@]5(CC)C=CCN6CC[C@]43[C@@H]65)C2)C1 [vincristine]	2.5 fold	boosted to the greatest extent	4.4 fold	3.1 fold	2.8 fold	2.5 fold	3.7 fold
